Experimental data reported in US11377442B2, “Small molecule agonists and antagonists of NR2F6 activity” (ZANDER THERAPEUTICS, INC., priority 2016, dated 2022).
“And” between values parts separate entries of the source, which are not always exact repeats. Equal entries are not always repeated. Where two headings read alike, the source gives them in different places. Values belong to the compound of their own block, whether it stands above or below them.

Experiments:
Type in all cases: cell-based
[1] = target: T1, NR2F6 LBD (Homo sapiens, UniProt P10588); assay: NR2F6 LBD transient transfection
T1 construct: expressed in transfected cells
T1 sequence (P10588 165-393 limits assumed): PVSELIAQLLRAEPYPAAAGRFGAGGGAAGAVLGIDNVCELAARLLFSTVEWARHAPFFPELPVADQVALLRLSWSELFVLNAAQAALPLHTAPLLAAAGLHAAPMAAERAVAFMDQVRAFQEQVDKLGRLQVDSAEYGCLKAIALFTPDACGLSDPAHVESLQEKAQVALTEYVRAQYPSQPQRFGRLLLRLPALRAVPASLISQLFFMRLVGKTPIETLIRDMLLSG
Procedure, shortened: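 LBD-transfected cells treated at 40, 10, 2 and 0.5 μM (4 replicates); cytotoxicity measured in parallel, normalized to DMSO (0%) and zero signal (100%). Higher concentrations excluded where signal loss reflected toxicity.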

[2] = tested on: Renilla; assay: Renilla signal, LBD, cmpd/DMSO (NR2F6 LBD transfected cells)
[3] = tested on: Renilla; assay: Renilla signal in NR2F6 agonist screening, cmpd/DMSO; conditions: Renilla
[4] = tested on: HEK293 pGL4; assay: Firefly_pGL signal, cmpd/DMSO (pGL4 control cells); conditions: Homo sapiens
[5] = target: T2, NR2F6 (Homo sapiens, UniProt P10588); assay: NR2F6 agonist screening, Firefly signal cmpd/DMSO
T2 construct: expressed in transfected cells; also transient transfection
T2 sequence (P10588 1-404): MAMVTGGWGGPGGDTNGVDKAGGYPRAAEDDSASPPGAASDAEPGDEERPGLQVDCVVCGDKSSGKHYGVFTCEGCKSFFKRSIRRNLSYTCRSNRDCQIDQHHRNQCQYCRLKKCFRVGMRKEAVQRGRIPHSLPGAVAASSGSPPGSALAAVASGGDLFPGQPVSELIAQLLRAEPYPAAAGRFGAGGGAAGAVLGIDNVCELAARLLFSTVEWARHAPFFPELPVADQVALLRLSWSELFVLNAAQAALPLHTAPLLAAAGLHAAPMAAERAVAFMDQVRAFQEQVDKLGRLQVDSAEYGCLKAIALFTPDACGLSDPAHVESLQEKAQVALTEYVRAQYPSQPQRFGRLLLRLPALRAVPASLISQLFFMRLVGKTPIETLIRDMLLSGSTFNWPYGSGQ

[6] = read-out: Renilla F4, cmpd/DMSO (mean)
[7] = F4, read-out: Renilla, F4, cmpd/DMSO (mean)
[8] = F4, 1% FBS, read-out: Renilla, F4, 1% FBS, cmpd/DMSO (mean)
[9] = F4, 10% FBS, read-out: Renilla, F4, 10% FBS, cmpd/DMSO (mean)
[10] = HEK293, 0.5 uM, pGL4, read-out: Firefly pGL4, cmpd/DMSO (mean)
[11] = HEK293, 0.5 uM, read-out: Firefly pGL4, cmpd/DMSO (mean)
[12] = HEK293, 2 uM, pGL4, read-out: Firefly pGL4, cmpd/DMSO (mean)
[13] = HEK293, 2 uM, read-out: Firefly pGL4, cmpd/DMSO (mean)
[14] = HEK293, 10 uM, pGL4, read-out: Firefly pGL4, cmpd/DMSO (mean)
[15] = HEK293, 10 uM, read-out: Firefly pGL4, cmpd/DMSO (mean)
[16] = HEK293, 40 uM, pGL4, read-out: Firefly pGL4, cmpd/DMSO (mean)
[17] = HEK293, 40 uM, read-out: Firefly pGL4, cmpd/DMSO (mean)
[18] = HEK293, pGL4, 1% FBS, 0.5 uM, read-out: Firefly, pGL4, 1% FBS, cmpd/DMSO (mean)
[19] = HEK293, pGL4, 1% FBS, 2 uM, read-out: Firefly, pGL4, 1% FBS, cmpd/DMSO (mean)
[20] = HEK293, pGL4, 1% FBS, 10 uM, read-out: Firefly, pGL4, 1% FBS, cmpd/DMSO (mean)
[21] = HEK293, pGL4, 1% FBS, 40 uM, read-out: Firefly, pGL4, 1% FBS, cmpd/DMSO (mean)
[22] = HEK293, pGL4, 10% FBS, 0.5 uM, read-out: Firefly, pGL4, 10% FBS, cmpd/DMSO (mean)
[23] = HEK293, pGL4, 10% FBS, 2 uM, read-out: Firefly, pGL4, 10% FBS, cmpd/DMSO (mean)
[24] = HEK293, pGL4, 10% FBS, 10 uM, read-out: Firefly, pGL4, 10% FBS, cmpd/DMSO (mean)
[25] = HEK293, pGL4, 10% FBS, 40 uM, read-out: Firefly, pGL4, 10% FBS, cmpd/DMSO (mean)

Firefly LBD, cmpd/DMSO (mean) ([1]; 0.5 uM): 1.3
Firefly LBD, cmpd/DMSO (mean) ([1]; 0.5 uM, LBD): 1.3
Firefly LBD, cmpd/DMSO (mean) ([1]; 2 uM): 2.9
Firefly LBD, cmpd/DMSO (mean) ([1]; 2 uM, LBD): 1.7
Firefly LBD, cmpd/DMSO (mean) ([1]; 10 uM): 1.2
Firefly LBD, cmpd/DMSO (mean) ([1]; 10 uM, LBD): 3.3
Firefly LBD, cmpd/DMSO (mean) ([1]; 40 uM): 0.2
Firefly LBD, cmpd/DMSO (mean) ([1]; 40 uM, LBD): 0.6
Firefly F4, cmpd/DMSO (mean) ([5]; 0.5 uM): 2.1
Firefly F4, cmpd/DMSO (mean) ([5]; 0.5 uM, F4): 1.7
Firefly F4, cmpd/DMSO (mean) ([5]; 2 uM): 4.5
Firefly F4, cmpd/DMSO (mean) ([5]; 2 uM, F4): 2.4
Firefly F4, cmpd/DMSO (mean) ([5]; 10 uM): 4.3
Firefly F4, cmpd/DMSO (mean) ([5]; 10 uM, F4): 6.2
Firefly F4, cmpd/DMSO (mean) ([5]; 40 uM): 1.0
Firefly F4, cmpd/DMSO (mean) ([5]; 40 uM, F4): 0.8
F4, Firefly/Renilla for S/B(F4) > 3 ([5]; 1% FBS, 10 uM): 3.5 and 2.6
F4, Firefly/Renilla for S/B(F4) > 3 ([5]; 10% FBS, 10 uM): 4.5 and 4.9
Firefly, F4/pGL4 for S/B(F4) > 3 ([5]; 10% FBS, 10 uM): 4.2 and 4.3
Firefly, F4, 1% FBS, cmpd/DMSO (mean) ([5]; F4, 1% FBS, 0.5 uM): 0.9
Firefly, F4, 1% FBS, cmpd/DMSO (mean) ([5]; F4, 1% FBS, 2 uM): 1.9 and 1.6
Firefly, F4, 1% FBS, cmpd/DMSO (mean) ([5]; F4, 1% FBS, 10 uM): 8.5 and 5.1
Firefly, F4, 1% FBS, cmpd/DMSO (mean) ([5]; F4, 1% FBS, 40 uM): 0.7 and 0.4
Firefly, F4, 10% FBS, cmpd/DMSO (mean) ([5]; F4, 10% FBS, 0.5 uM): 0.8 and 1.3
Firefly, F4, 10% FBS, cmpd/DMSO (mean) ([5]; F4, 10% FBS, 2 uM): 1.4 and 1.5
Firefly, F4, 10% FBS, cmpd/DMSO (mean) ([5]; F4, 10% FBS, 10 uM): 11 and 13
Firefly, F4, 10% FBS, cmpd/DMSO (mean) ([5]; F4, 10% FBS, 40 uM): 1.4 and 1.0
Activity, cmpd/DMSO ([5]; Table 31): 7.1
SMILES: O=S1(=O)C[C@H](N2CCCC2)[C@@H](S(=O)(=O)c2cccs2)C1 [Compound D104]
Renilla LBD, cmpd/DMSO (mean) ([2]; 0.5 uM): 1.1
Renilla LBD, cmpd/DMSO (mean) ([2]; 2 uM): 1.1
Renilla LBD, cmpd/DMSO (mean) ([2]; 10 uM): 0.6
Renilla LBD, cmpd/DMSO (mean) ([2]; 40 uM): 0.2
fold induction at 0.5 µM [3, 6]: 1.2
fold induction at 2 µM [3, 6]: 2
fold induction at 10 µM [3, 6]: 1.7
fold induction at 40 µM [3, 6]: 0.3
fold induction at 0.5 µM [3, 7]: 1.1
fold induction at 2 µM [3, 7]: 1.2
fold induction at 10 µM [3, 7]: 1.6
fold induction at 40 µM [3, 7]: 0.3
fold induction at 0.5 µM [3, 8]: 1.1
fold induction at 2 µM [3, 8]: 1.4
fold induction at 10 µM [3, 8]: 2.4
fold induction at 40 µM [3, 8]: 1
fold induction at 0.5 µM [3, 9]: 1
fold induction at 2 µM [3, 9]: 1.3
fold induction at 10 µM [3, 9]: 2.5
fold induction at 40 µM [3, 9]: 2.2
fold induction at 0.5 µM [4, 10]: 1.3
fold induction at 0.5 µM [4, 11]: 1.2
fold induction at 2 µM [4, 12]: 1.4
fold induction at 2 µM [4, 13]: 1.8
fold induction at 10 µM [4, 14]: 4
fold induction at 10 µM [4, 15]: 2.4
fold induction at 40 µM [4, 16]: 0.7
fold induction at 40 µM [4, 17]: 0.7
fold induction at 0.5 µM [4, 18]: 1
fold induction at 2 µM [4, 19]: 1
fold induction at 10 µM [4, 20]: 1.5
fold induction at 40 µM [4, 21]: 0.6
fold induction at 0.5 µM [4, 22]: 1.1
fold induction at 2 µM [4, 23]: 1.7
fold induction at 10 µM [4, 24]: 2.7
fold induction at 40 µM [4, 25]: 0.5

Firefly LBD, cmpd/DMSO (mean) ([1]; 0.5 uM): 0.8
Firefly LBD, cmpd/DMSO (mean) ([1]; 0.5 uM, LBD): 1.3
Firefly LBD, cmpd/DMSO (mean) ([1]; 2 uM): 1.7
Firefly LBD, cmpd/DMSO (mean) ([1]; 2 uM, LBD): 2.0
Firefly LBD, cmpd/DMSO (mean) ([1]; 10 uM): 4.3
Firefly LBD, cmpd/DMSO (mean) ([1]; 10 uM, LBD): 3.6
Firefly LBD, cmpd/DMSO (mean) ([1]; 40 uM): 0.5
Firefly LBD, cmpd/DMSO (mean) ([1]; 40 uM, LBD): 0.7
Firefly F4, cmpd/DMSO (mean) ([5]; 0.5 uM): 1.3
Firefly F4, cmpd/DMSO (mean) ([5]; 0.5 uM, F4): 1.4
Firefly F4, cmpd/DMSO (mean) ([5]; 2 uM): 1.4
Firefly F4, cmpd/DMSO (mean) ([5]; 2 uM, F4): 1.9
Firefly F4, cmpd/DMSO (mean) ([5]; 10 uM): 4.3
Firefly F4, cmpd/DMSO (mean) ([5]; 10 uM, F4): 4.1
Firefly F4, cmpd/DMSO (mean) ([5]; 40 uM): 0.9
Firefly F4, cmpd/DMSO (mean) ([5]; 40 uM, F4): 2.3
F4, Firefly/Renilla for S/B(F4) > 3 ([5]; 1% FBS, 10 uM): 2.7 and 2.1
F4, Firefly/Renilla for S/B(F4) > 3 ([5]; 10% FBS, 10 uM): 2.2
Firefly, F4/pGL4 for S/B(F4) > 3 ([5]; 10% FBS, 10 uM): 2.2
F4, Firefly/Renilla for S/B(F4) > 3 ([5]; 10% FBS, 40 uM): 1.4 and 2.5
Firefly, F4/pGL4 for S/B(F4) > 3 ([5]; 10% FBS, 40 uM): 2.3 and 2.1
Firefly, F4, 1% FBS, cmpd/DMSO (mean) ([5]; F4, 1% FBS, 0.5 uM): 0.8 and 0.9
Firefly, F4, 1% FBS, cmpd/DMSO (mean) ([5]; F4, 1% FBS, 2 uM): 1.5 and 0.9
Firefly, F4, 1% FBS, cmpd/DMSO (mean) ([5]; F4, 1% FBS, 10 uM): 5.4 and 3.6
Firefly, F4, 1% FBS, cmpd/DMSO (mean) ([5]; F4, 1% FBS, 40 uM): 0.8 and 0.7
Firefly, F4, 10% FBS, cmpd/DMSO (mean) ([5]; F4, 10% FBS, 2 uM): 1.1
Firefly, F4, 10% FBS, cmpd/DMSO (mean) ([5]; F4, 10% FBS, 10 uM): 4.1 and 2.3
Firefly, F4, 10% FBS, cmpd/DMSO (mean) ([5]; F4, 10% FBS, 40 uM): 4.2 and 6.2
SMILES: CC(C)CCN[C@H]1CS(=O)(=O)C[C@@H]1S(=O)(=O)c1ccc(Cl)cc1 [Compound D131]
Renilla LBD, cmpd/DMSO (mean) ([2]; 0.5 uM): 1.1
Renilla LBD, cmpd/DMSO (mean) ([2]; 2 uM): 1.1
Renilla LBD, cmpd/DMSO (mean) ([2]; 10 uM): 0.8
Renilla LBD, cmpd/DMSO (mean) ([2]; 40 uM): 0.2
fold induction at 0.5 µM [3, 6]: 1
fold induction at 2 µM [3, 6]: 1
fold induction at 10 µM [3, 6]: 1.9
fold induction at 40 µM [3, 6]: 0.3
fold induction at 0.5 µM [3, 7]: 1.1
fold induction at 2 µM [3, 7]: 1.2
fold induction at 10 µM [3, 7]: 1.6
fold induction at 40 µM [3, 7]: 1.8
fold induction at 0.5 µM [3, 8]: 1
fold induction at 2 µM [3, 8]: 1.3
fold induction at 10 µM [3, 8]: 2
fold induction at 40 µM [3, 8]: 2
fold induction at 0.5 µM [3, 9]: 1
fold induction at 2 µM [3, 9]: 1.1
fold induction at 10 µM [3, 9]: 1.8
fold induction at 40 µM [3, 9]: 3
fold induction at 0.5 µM [4, 10]: 1.1
fold induction at 0.5 µM [4, 11]: 1
fold induction at 2 µM [4, 12]: 1.5
fold induction at 2 µM [4, 13]: 1.3
fold induction at 10 µM [4, 14]: 2.7
fold induction at 10 µM [4, 15]: 2.3
fold induction at 40 µM [4, 16]: 0.5
fold induction at 40 µM [4, 17]: 1
fold induction at 0.5 µM [4, 18]: 1
fold induction at 2 µM [4, 19]: 1.1
fold induction at 10 µM [4, 20]: 1.7
fold induction at 40 µM [4, 21]: 0.9
fold induction at 0.5 µM [4, 22]: 1
fold induction at 2 µM [4, 23]: 1.2
fold induction at 10 µM [4, 24]: 1.9
fold induction at 40 µM [4, 25]: 1.8
